Data published in ChEMBL document CHEMBL4346757, “Synthesis and biological evaluation of 7-methoxy-1-(3,4,5-trimethoxyphenyl)-4,5-dihydro-2H-benzo[e]indazoles as new colchicine site inhibitors” (Bioorg Med Chem Lett, 2019).
pIC50: −log10 of the molar value.

Key:
Tubulin = Tubulin (Bos taurus, UniProt Q6B856+Q862L2+Q862F3); assay: Inhibition of bovine brain tubulin polymerization measured every 1 min for 60 mins by turbidimetry based microplate reader analysis
HCT-116 [1] = assay: Antiproliferative activity against human HCT116 cells assessed as reduction in cell viability by MTT assay; format: functional, cell-based
EKVX [2] = assay: Growth inhibition of human EKVX cells assessed as cell growth at 0.01 uM after 48 hrs by SRB assay relative to control; format: functional; conditions: read-out: Activity
HT-29 = assay: Growth inhibition of human HT-29 cells assessed as cell growth at 0.01 uM after 48 hrs by SRB assay relative to control; format: functional; conditions: HT-29, 48 h, read-out: Activity
M14 = assay: Growth inhibition of human M14 cells assessed as cell growth at 0.01 uM after 48 hrs by SRB assay relative to control; format: functional; conditions: M14, 48 h, read-out: Activity
SK-MEL-2 = assay: Growth inhibition of human SK-MEL-2 cells assessed as cell growth at 0.01 uM after 48 hrs by SRB assay relative to control; format: functional; conditions: SK-MEL-2, 48 h, read-out: Activity
SK-OV-3 [3] = assay: Growth inhibition of human SKOV3 cells assessed as cell growth at 0.01 uM after 48 hrs by SRB assay relative to control; format: functional; conditions: SK-OV-3, 48 h, read-out: Activity
A549 [4] = assay: Growth inhibition of human A549/ATCC cells assessed as cell growth at 0.1 uM after 48 hrs by SRB assay relative to control; format: functional; conditions: A549, 48 h, read-out: Activity
COLO 205 = assay: Growth inhibition of human COLO205 cells assessed as cell growth at 0.1 uM after 48 hrs by SRB assay relative to control; format: functional; conditions: COLO 205, 48 h, read-out: Activity
HCT-116 [5] = assay: Growth inhibition of human HCT116 cells assessed as cell growth at 0.1 uM after 48 hrs by SRB assay relative to control; format: functional; conditions: HCT-116, 48 h, read-out: Activity
HCT-15 = assay: Growth inhibition of human HCT15 cells assessed as cell growth at 0.1 uM after 48 hrs by SRB assay relative to control; format: functional; conditions: HCT-15, 48 h, read-out: Activity
KM12 [6] = assay: Growth inhibition of human KM12 cells assessed as cell growth at 0.1 uM after 48 hrs by SRB assay relative to control; format: functional; conditions: KM12, 48 h, read-out: Activity
786-0 = assay: Growth inhibition of human 786-0 cells assessed as cell growth at 0.1 uM after 48 hrs by SRB assay relative to control; format: functional; conditions: 786-0, 48 h, read-out: Activity
DU-145 [7] = assay: Growth inhibition of human DU145 cells assessed as cell growth at 0.1 uM after 48 hrs by SRB assay relative to control; format: functional; conditions: DU-145, 48 h, read-out: Activity
CCRF-CEM = assay: Growth inhibition of human CCRF-CEM cells assessed as cell growth at 1 uM after 48 hrs by SRB assay relative to control; format: functional; conditions: read-out: Activity
EKVX [8] = assay: Growth inhibition of human EKVX cells assessed as cell growth at 1 uM after 48 hrs by SRB assay relative to control; format: functional; conditions: read-out: Activity
DU-145 [9] = assay: Growth inhibition of human DU145 cells assessed as cell growth at 1 uM after 48 hrs by SRB assay relative to control; format: functional; conditions: DU-145, 48 h, read-out: Activity
A549 [10] = assay: Growth inhibition of human A549/ATCC cells assessed as cell growth at 10 uM after 48 hrs by SRB assay relative to control; format: functional; conditions: A549, 48 h, read-out: Activity
NCI-H322M = assay: Growth inhibition of human NCI-H322M cells assessed as cell growth at 10 uM after 48 hrs by SRB assay relative to control; format: functional; conditions: read-out: Activity
UO-31 = assay: Growth inhibition of human UO31 cells assessed as cell growth at 10 uM after 48 hrs by SRB assay relative to control; format: functional; conditions: UO-31, 48 h, read-out: Activity
MDA-MB-231 = assay: Growth inhibition of human MDA-MB-231/ATCC cells assessed as cell growth at 10 uM after 48 hrs by SRB assay relative to control; format: functional; conditions: MDA-MB-231, 48 h, read-out: Activity
T47D [11] = assay: Growth inhibition of human T47D cells assessed as cell growth at 10 uM after 48 hrs by SRB assay relative to control; format: functional; conditions: read-out: Activity
RPMI-8226 = assay: Growth inhibition of human RPMI8226 cells assessed as cell growth at 100 uM after 48 hrs by SRB assay relative to control; format: functional; conditions: RPMI-8226, 48 h, read-out: Activity
KM12 [12] = assay: Growth inhibition of human KM12 cells assessed as cell growth at 100 uM after 48 hrs by SRB assay relative to control; format: functional; conditions: KM12, 48 h, read-out: Activity
OVCAR-4 = assay: Growth inhibition of human OVCAR4 cells assessed as cell growth at 100 uM after 48 hrs by SRB assay relative to control; format: functional; conditions: OVCAR-4, 48 h, read-out: Activity
NCI-H23 = assay: Cytotoxicity against human NCI-H23 cells assessed as growth inhibition after 48 hrs by SRB assay; format: functional; conditions: NCI-H23, 48 h
NCI-H522 = assay: Cytotoxicity against human NCI-H522 cells assessed as growth inhibition after 48 hrs by SRB assay; format: functional; conditions: NCI-H522, 48 h
U-251 = assay: Cytotoxicity against human U251 cells assessed as growth inhibition after 48 hrs by SRB assay; format: functional; conditions: U-251, 48 h
OVCAR-3 = assay: Cytotoxicity against human OVCAR3 cells assessed as growth inhibition after 48 hrs by SRB assay; format: functional; conditions: OVCAR-3, 48 h
SK-OV-3 [13] = assay: Cytotoxicity against human SKOV3 cells assessed as growth inhibition after 48 hrs by SRB assay; format: functional; conditions: SK-OV-3, 48 h
T47D [14] = assay: Cytotoxicity against human T47D cells assessed as growth inhibition after 48 hrs by SRB assay; format: functional
[15] = read-out: LC50 (the source's name)
[16] = read-out: pLC50 (the source's name) (converted)

`COc1ccc2c(c1)CCc1n[nH]c(-c3cc(OC)c(OC)c(OC)c3)c1-2` gave an IC50 (Tubulin) of 3.4 µM, a pIC50 (HCT-116 [1]) of 9.00 and a growth at 0.01 µM (EKVX [2]) of 48%. It also gave a growth at 0.01 µM (HT-29) of 5%, a growth at 0.01 µM (M14) of 2% and a growth at 0.01 µM (SK-MEL-2) of 39%. It also gave a growth at 0.01 µM (SK-OV-3 [3]) of -1%, a growth at 0.1 µM (A549 [4]) of 11% and a growth at 0.1 µM (COLO 205) of -46%. The growth at 0.1 µM (HCT-116 [5]) was 3%, the growth at 0.1 µM (HCT-15) was 4% and the growth at 0.1 µM (KM12 [6]) was 10%. The growth at 0.1 µM (786-0) was 17%, the growth at 0.1 µM (DU-145 [7]) was 10% and the growth at 1 µM (CCRF-CEM) was 42%. The growth at 1 µM (EKVX [8]) was 52%, the growth at 1 µM (DU-145 [9]) was 12% and the growth at 10 µM (A549 [10]) was 11%. The growth at 10 µM (NCI-H322M) was 31%, the growth at 10 µM (UO-31) was 13% and the growth at 10 µM (MDA-MB-231) was 33%. For the same compound, the growth at 10 µM (T47D [11]) was 35%, the growth at 100 µM (RPMI-8226) was 15% and the growth at 100 µM (KM12 [12]) was -78%. For the same compound, the growth at 100 µM (OVCAR-4) was -12%, the GI50 (NCI-H23; read-out: GI50) was < 0.01 µM and the CC50 (NCI-H23; [15]) was > 100 µM. For the same compound, the TGI (NCI-H23; read-out: TGI) was 3.53 µM, the GI50 (NCI-H23; read-out: pGI50 (converted)) was < 0.01 µM and the CC50 (NCI-H23; [16]) was > 100 µM. For the same compound, the TGI (NCI-H23; read-out: pTGI (converted)) was 3.55 µM, the GI50 (NCI-H522; read-out: GI50) was < 0.01 µM and the CC50 (NCI-H522; [15]) was 46.9 µM. For the same compound, the TGI (NCI-H522; read-out: TGI) was < 0.01 µM, the GI50 (NCI-H522; read-out: pGI50 (converted)) was < 0.01 µM and the CC50 (NCI-H522; [16]) was 46.8 µM. For the same compound, the TGI (NCI-H522; read-out: pTGI) was < 0.01 µM, the GI50 (U-251; read-out: GI50) was < 0.01 µM and the CC50 (U-251; [15]) was 51.3 µM. For the same compound, the TGI (U-251; read-out: TGI) was 11.5 µM, the GI50 (U-251; read-out: pGI50 (converted)) was < 0.01 µM and the CC50 (U-251; [16]) was 51.3 µM. The TGI (U-251; read-out: pTGI (converted)) was 11.5 µM, the GI50 (OVCAR-3; read-out: GI50) was < 0.01 µM and the LC50 (50% lethal concentration) (OVCAR-3; read-out: LC50) was 75.5 µM. For the same compound, the TGI (OVCAR-3; read-out: TGI) was 14.7 µM, the GI50 (OVCAR-3; read-out: pGI50 (converted)) was < 0.01 µM and the LC50 (50% lethal concentration) (OVCAR-3; read-out: pLC50 (converted)) was 75.9 µM. The TGI (OVCAR-3; read-out: pTGI (converted)) was 14.8 µM, the GI50 (SK-OV-3 [13]; read-out: GI50) was < 0.01 µM and the CC50 (SK-OV-3 [13]; [15]) was > 100 µM. The TGI (SK-OV-3 [13]; read-out: TGI) was < 0.01 µM, the GI50 (SK-OV-3 [13]; read-out: pGI50 (converted)) was < 0.01 µM and the CC50 (SK-OV-3 [13]; [16]) was > 100 µM. The TGI (SK-OV-3 [13]; read-out: pTGI) was < 0.01 µM, the GI50 (T47D [14]; read-out: GI50) was 3.59 µM and the LC50 (T47D [14]; read-out: LC50) was 62.5 µM. The TGI (T47D [14]; read-out: TGI) was 21.3 µM, the GI50 (T47D [14]; read-out: pGI50 (converted)) was 3.63 µM and the LC50 (T47D [14]; read-out: pLC50 (converted)) was 63.1 µM. It also gave a TGI (T47D [14]; read-out: pTGI (converted)) of 21.4 µM.
